Laboratory results: patent publication US20240009179A1, “METHODS OF TREATING CYSTIC FIBROSIS USING WITH-NO-LYSINE (WNK) KINASE PATHWAY INHIBITORS” (UNIVERSITY OF IOWA RESEARCH FOUNDATION, priority 2022, published 2024)

Legend:
airway epithelia = details: previous studies in airway epithelia; cited from earlier work
[1] = system: primary cultures of differentiated CF airway epithelia; assay: pHASL measurement (SNARF-1-dextran) in primary CF airway epithelia; assay type: cell-based, human
Text: (§1) Cell culture. Primary cultures of differentiated airway epithelia were obtained without passage from multiple human donors as previously reported (37). Briefly, proximal bronchi were dissected, cut into small pieces, and enzymatically digested. Epithelial cells were isolated and seeded onto collagen-coated inserts (Costar, 3470; Falcon, 353180). Epithelia were differentiated at the air liquid interface for 3 weeks or more prior to assay. During the course of this study, new CF lung donors became scarce, partly due to more individuals taking highly-active CFTR modulators. To manage this situation, epithelial cells from previous CF donors cryopreserved at PO were thawed and differentiated. Whenever feasible, studies followed a paired design so that epithelia from the same donor were assayed under control and treatment conditions.
(§2) pHASL measurement. pHASL was measured using a fluorescent ratiometric pH indicator, SNARF-1, conjugated to 70 kD dextran (Thermo Fisher Scientific). SNARF-1-dextran was delivered as a powder to the apical side and allowed to distribute into ASL for 1 hour. Imaging was performed on a laser-scanning confocal microscope (Zeiss LSM 880). SNARF-1 was excited at 514 nm, and emissions at 580 nm and 640 nm were recorded. The ratio of fluorescence intensities (580/640) was obtained to calculate pH values using calibration curves constructed from colorless standard pH solutions. The microscope chamber housing epithelia maintained a humidified environment at 37° C. 5% CO2 was added to the chamber environment whenever the basolateral side was immersed in a HCO3^− containing buffer solution, but removed when a HCO3^−-free (HEPES) buffer solution was used.

[2] = system: TNFα/IL-17-treated CF epithelia; assay: pHASL measurement in TNFα/IL-17-treated CF epithelia; assay type: cell-based, human; details: CF epithelia treated with TNFα 10 ng/ml and IL-17 20 ng/ml for 48 hours, 2 hours
Method: To assess cytokine-induced responses, epithelia were treated with a combination of 10 ng/ml TNFα (R&D Systems) and 20 ng/ml IL-17 (R&D Systems). Both cytokines were added to the basolateral media for 48 hours prior to assessments. All studies were approved by the University of Iowa Institutional Review Board.
as §2

[3] = system: primary cultures of non-CF epithelia; assay: pHASL measurement (SNARF-1-dextran) in primary non-CF airway epithelia; assay type: cell-based, human; details: WNK463 10 μM, 2 hours, 25 mM HCO3− and 5% CO2
Text: as §1
pHASL measurement. pHASL was measured using a fluorescent ratiometric pH indicator, SNARF-1, conjugated to 70 kD dextran (Thermo Fisher Scientific). SNARF-1-dextran was delivered as a powder to the apical side and allowed to distribute into ASL for 1 hour. […] SNARF-1 was excited at 514 nm, and emissions at 580 nm and 640 nm were recorded. The ratio of fluorescence intensities (580/640) was obtained to calculate pH values using calibration curves constructed from colorless standard pH solutions. […]

primary CF epithelia [4] = assay: Liquid absorption assay; assay type: cell-based, human; details: WNK463 10 μM, 4 hours
Method: Liquid absorption assay. Liquid absorption was measured using a previously reported method (40). Briefly, airway epithelia were transferred to 500 μl of fresh basolateral solution containing either vehicle or 10 μM WNK463. The apical side was suctioned dry and 30 μl of Krebs buffer solution was introduced. Of note, the apical solution had the same ionic composition, osmolality, and pH as the basolateral solution. After 4 hours, the apical liquid was collected with micropipettes (Drummond Microcaps #1-000-1000) and the height of the liquid column was recorded. Volume of liquid was calculated as the product of height and micropipette cross-sectional area. The difference between the original and 4-hour liquid volumes was used to calculate the rate of absorption (μl·cm^−2·h^−1).

NKCC1 [5] = assay: Ussing chamber, bumetanide-sensitive ISC in CF epithelia; assay type: cell-based, human; details: WNK463 10 μM, 2 hours, amiloride, UTP, then basolateral bumetanide
Method: (§3) Electrophysiologic studies. Airway epithelia were mounted in modified Ussing chambers (Physiologic Instruments) and bathed in symmetric Krebs buffer solution. The standard Krebs buffer contained (in mM): 118.9 NaCl, 25 NaHCO3, 2.4 K2HPO4, 0.6 KH2PO4, 1.2 MgCl2, 1.2 CaCl2), and 5 dextrose at 37° C., adjusted to pH 7.4 in the presence of 5% CO2. The HCO3^−-free solution contained (in mM): 135 NaCl, 2.4 K2HPO4, 0.6 KH2PO4, 1.2 MgCl2, 1.2 CaCl2), 5 HEPES, and 5 dextrose at 37° C., adjusted to pH 7.4 in nominally C02^−free environment. The Cl^−-free solution contained (in mM): 118.9 Na gluconate, 25 NaHCO3, 2.4 K2HPO4, 0.6 KH2PO4, 5 Ca gluconate, 1 Mg gluconate, 5 dextrose, at 37° C. and adjusted to pH 7.4 in the presence of 5% C02. Epithelia were voltage clamped, followed by recording of the short-circuit current (ISC) and transepithelial conductance (Gt). Exposure to either vehicle (DMSO) or WNK463 was continued during recording. The following agents were added apically (in μM): 100 amiloride, 20 uridine triphosphate (UTP), 100 4,4′-diisothiocyano-2,2′-stilbenedisulfonic acid (DIDS), 10 forskolin, and 10 CFTRinh-172. In some experiments, 100 μM bumetanide was also added to the serosal chambers.
(§4) Reducing basolateral Cl^−-entry increases CF pHASL. […] To estimate the contribution of NKCC1, we added basolateral bumetanide, and measured ΔISC. […]

NKCC1 [6] = assay: Ussing chamber, bumetanide-sensitive ISC in non-CF epithelia; assay type: cell-based, human; details: WNK463 10 μM, 2 hours, amiloride, forskolin, then basolateral bumetanide
Method: as §3, §4

primary CF epithelia [7] = assay: Ciliary beat frequency measurement; assay type: cell-based, human; details: WNK463 10 μM, 2 hours
Method: Ciliary beat frequency measurement. Phase contrast videos of ciliary motion were obtained using the Zeiss Axio Observer microscope at 50 frames per second at room temperature. A total of 256 frames (5.1 second videos) were obtained for each field. A minimum of five random fields per culture were selected. Whole field gaussian mean ciliary beat frequencies (CBF) were analyzed using the Sisson-Ammons video analysis software (SAVA; Ammons Engineering, Mt. Morris, MI) (41).

[8] = rat model of hypertension; cited from earlier work
CaCC = assay: Ussing chamber, response to apical DIDS in CF epithelia; assay type: cell-based, human; details: WNK463 10 μM, 2 hours, after amiloride and UTP
Method: as §3
CF epithelia lack functional CFTR channels, but express CaCC. […] Next, we added DIDS, a non-specific CaCC inhibitor, and recorded the change in ISC and Gt.

S. aureus = S. aureus killing assay (ASL antimicrobial activity, bacteria-coated grids); assay type: cell-based; details: primary CF epithelia; WNK463 10 μM, 2 hours
Method: S. aureus killing assay. ASL antimicrobial activity was assessed using bacteria-coated grids. Preparation, imaging, and quantification were performed as previously described (13). Briefly, S. aureus isolate SA-CL37 was grown to log-phase, labeled with biotin, and conjugated to streptavidin-coated gold electron microscopy grids. The grids were placed on the apical side of airway epithelia in direct contact with ASL. After incubating for 15 minutes in humidified, 5% CO2 chambers at 37° C., the grids were retrieved, rinsed with PBS, and immersed in SYTO9 and propidium iodide to determine bacterial viability (Live/Dead Bacterial Viability Assay, Invitrogen). The grids were washed, fixed with 4% paraformaldehyde, and imaged on the Olympus Fluoview FV 3000 confocal microscope. Images were analyzed for numbers of live and dead bacteria using the ImageJ software. For each grid, three separate regions were imaged. Two grids were assessed per epithelium and the results averaged to obtain % S. aureus killing.

CFTR = assay: Ussing chamber, response to CFTRinh-172 in non-CF epithelia; assay type: cell-based, human; details: WNK463 10 μM
Method: as §3
WNK463 reduces electrogenic Cl^− secretion. CFTR is the main route for anion exit across the apical membrane of airway epithelia. Whether WNK inhibition alters CFTR activity in airway epithelia is not well-established. To test, we exposed non-CF epithelia to WNK463 for 2 hours, and assayed in Ussing chambers containing symmetric Krebs solution (118 mM Cl^− and 25 mM HCO3^−, gassed with 5% CO2). After clamping transepithelial voltage, we recorded ISC and Gt, and elicited responses to selective channel inhibitors or activators (FIGS. 5A and 5B). We added amiloride followed by DIDS to abolish ENaC-mediated Na^+ absorption and Ca^2+-activated Cl^− channel (CaCC)-mediated anion secretion, respectively. Next, we added forskolin to increase cellular cAMP and thereby phosphorylate and activate CFTR channels. We concluded with CFTRinh-172, an inhibitor of CFTR. We assessed the response to CFTRinh-172 and used it to estimate CFTR channel activity. WNK463 reduced ΔISC-CFTR by ˜ 50% (FIG. 5C).

primary CF epithelia [9] = assay: ASL viscosity measurement (FRAP); assay type: cell-based, human; details: WNK463 10 μM, 2 hours
Method: ASL viscosity measurement. ASL viscosity was measured using the fluorescence recovery after photobleaching (FRAP) method as previously reported (12). Briefly, powdered FITC-dextran (70 kD, Sigma) was delivered to the apical side of airway epithelia, and allowed to equilibrate for 2 hours. Epithelia were moved to a humidified chamber on the Zeiss LSM 880 confocal microscope. The chamber maintained a temperature of 37° C. and an atmosphere of 5% CO2. After baseline imaging, a small region of interest was photobleached. Time series fluorescence recovery images were collected until maximal recovery was reached. For each epithelium, 4-5 curves from different locations were obtained and averaged. The time constant (T) was calculated from the fluorescence recovery curves using regression, and expressed as ASL value normalized to saline (τASL/τsaline).

[10] = 2 hours, symmetric Krebs solution with Cl− and HCO3−

Structure (SMILES): CCCCNc1cc(C(=O)O)cc(S(N)(=O)=O)c1Oc1ccccc1 [bumetanide]
- intracellular [Cl−] (airway epithelia): decreases
- pHASL ([1]; CF epithelia, 2 hours after exposure to basolateral bumetanide): increased
- pHASL ([2]; bumetanide 100 μM): further alkalinized

Structure (SMILES): CC(C)(C)NC(=O)c1cncn1C1CCN(c2ccc(-c3nnc(C(F)(F)F)o3)cn2)CC1 [WNK463]
- pHASL [3]: increased
- rate of apical liquid absorption (primary CF epithelia [4]): did not alter
- bumetanide-sensitive ISC (NKCC1 [5]): reduced
- bumetanide-sensitive ISC (NKCC1 [6]): reduced
- ciliary beat frequency (primary CF epithelia [7]): increased
- pHASL ([1]; CF epithelia, WNK463 10 μM, 2 hours, in the absence of basolateral Cl−): failed to alkalinize
- pHASL ([1]; primary CF epithelia, WNK463 10 μM, 2 hours, 25 mM HCO3− and 5% CO2): increased
- pHASL, time course ([1]; primary CF epithelia, continued exposure up to 24 hours versus 2 hours): did not further alkalinize
- pHASL response ([1]; primary CF epithelia, nominally HCO3−/CO2-free environment (HEPES), WNK463 10 μM): disappeared
- adverse effects [8]: adverse effects
- DIDS-sensitive ΔGt (CaCC): slightly increased
- DIDS-sensitive ΔISC (CaCC): decreased
- ASL-mediated S. aureus killing (S. aureus): increased
- ΔISC-CFTR (CFTR; Cl−-free solution): remained unchanged
- reduction of ΔISC-CFTR (CFTR; [10]): ~50%
- ΔGt-CFTR (CFTR; [10]): remained unchanged
- ΔISC-CFTR (CFTR; symmetric HCO3−-free solution): reduced
- pHASL ([2]; WNK463 10 μM): further increased
- ASL viscosity (τASL/τsaline) (primary CF epithelia [9]): decreased

Structure (SMILES): O=C(Nc1ccc(Oc2ccc(Cl)cc2)c(Cl)c1)c1cc(I)cc(I)c1O [rafoxanide, Rafoxanide]
- pHASL ([1]; primary CF epithelia, rafoxanide applied for 2 hours): increased
